In the supplement of paper PMC10627819:

Legend:
Test in all cases: fitness (endpoint OD595 vs no drug) (fraction); higher = more growth
[1] = system: S. aureus Newman
How it was run: (§1)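 Plates with 384 wells were inoculated at OD595 0.01 using 30 µl of TSB, LB Lennox or CY, or 55 µl for S. pneumoniae. Incubation was at 37 °C, with OD595 measured every 30 min for 14 h. Fitness is the stationary-phase transition optical density over the robust mean of no-drug control wells, after first-reading background subtraction; it is capped at 1.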

[2] = system: S. pneumoniae D39V
How it was run: as §1

[3] = system: B. subtilis 168
How it was run: as §1

CC[C@H]1OC(=O)[C@H](C)[C@@H](O[C@H]2C[C@@](C)(OC)[C@@H](O)[C@H](C)O2)[C@H](C)[C@@H](O[C@@H]2O[C@H](C)C[C@H](N(C)C)[C@H]2O)[C@](C)(O)C[C@@H](C)CN(C)[C@H](C)[C@@H](O)[C@]1(C)O [Azithromycin] + CC1(C)S[C@@H]2[C@H](NC(=O)Cc3ccccc3)C(=O)N2[C@H]1C(=O)O [Penicillin G]
fitness, [1]
Details	first compound 0.125 µg/mL	first compound 0.25 µg/mL	first compound 0.5 µg/mL
partner 0.0195 µg/mL	0.844	0.729	0.513
partner 0.039 µg/mL	0.822	0.77	0.452
partner 0.078 µg/mL	0.775	0.741	0.411

CC1=C(C(=O)O)N2C(=O)[C@@H](NC(=O)[C@H](N)c3ccccc3)[C@H]2SC1 [Cephalexin] + CC1(C)S[C@@H]2[C@H](NC(=O)Cc3ccccc3)C(=O)N2[C@H]1C(=O)O [Penicillin G]
fitness, [1]
Details	first compound 0.25 µg/mL	first compound 0.5 µg/mL	first compound 1 µg/mL
partner 0.0195 µg/mL	0.891	0.785	0.811
partner 0.039 µg/mL	0.927	0.937	0.908
partner 0.078 µg/mL	0.875	0.897	0.944

O=C(O)[C@H]1/C(=C/CO)O[C@@H]2CC(=O)N21 [Clavulanic acid] + C/C(=C\C(=O)OCCCCCCCCC(=O)O)C[C@@H]1OC[C@H](C[C@@H]2O[C@H]2[C@@H](C)[C@H](C)O)[C@@H](O)[C@H]1O [Pseudomonic acid]
fitness, [2]
Details	first compound 0.5 µg/mL	first compound 1 µg/mL	first compound 2 µg/mL
partner 0.03 µg/mL	0.921	0.906	0.832
partner 0.06 µg/mL	0.769	0.803	0.656
partner 0.12 µg/mL	0.408	0.519	0.277

O=C(O)[C@H]1/C(=C/CO)O[C@@H]2CC(=O)N21 [Clavulanic acid] + CC1(C)S[C@@H]2[C@H](NC(=O)Cc3ccccc3)C(=O)N2[C@H]1C(=O)O [Penicillin G]
fitness, [1], one replicate
Details	first compound 0.03125 µg/mL	first compound 0.0625 µg/mL	first compound 0.125 µg/mL
partner 0.0195 µg/mL	0.934	0.859	0.796
partner 0.039 µg/mL	0.851	0.819	0.712
partner 0.078 µg/mL	0.846	0.694	0.613

O=C(O)[C@H]1/C(=C/CO)O[C@@H]2CC(=O)N21 [Clavulanic acid] + CC(=O)NC[C@H]1CN(c2ccc(N3CCOCC3)c(F)c2)C(=O)O1 [Linezolid]
fitness
Details	partner 0.105 µg/mL	partner 0.125 µg/mL	partner 0.2 µg/mL	partner 0.21 µg/mL	partner 0.25 µg/mL	partner 0.4 µg/mL	partner 0.42 µg/mL	partner 0.5 µg/mL	partner 0.8 µg/mL
[2], first compound 0.5 µg/mL	0.808	–	0.474	0.658	–	0.261	0.453	–	0.075
[2], first compound 1 µg/mL	0.801	–	0.531	0.67	–	0.363	0.443	–	0.226
[2], first compound 2 µg/mL	0.749	–	0.392	0.567	–	0.22	0.238	–	0.102
[3], first compound 1.5 µg/mL	–	0.659	–	–	0.247	–	–	0.0633	–
[3], first compound 3 µg/mL	–	0.597	–	–	0.184	–	–	0.025	–
[3], first compound 6 µg/mL	–	0.585	–	–	0.151	–	–	0.0316	–

[3], partner 0.0625 µg/mL, one replicate
Details	fitness
first compound 1.5 µg/mL	0.85
first compound 3 µg/mL	0.773
first compound 6 µg/mL	0.789

O=C(O)[C@H]1/C(=C/CO)O[C@@H]2CC(=O)N21 [Clavulanic acid] + CCC(C)C1C(=O)NC(=C)C(=O)NC(C(=O)NC(CSCC(C(=O)N1)NC(=O)/C(=C/C)/NC(=O)C(C(C)CC)N)C(=O)NC2C(SCC(NC(=O)CNC(=O)C3CCCN3C2=O)C(=O)NC(CCCCN)C(=O)NC4C(SCC(NC(=O)CNC(=O)C(NC(=O)C(NC(=O)C(NC(=O)CNC4=O)C)CC(C)C)CCSC)C(=O)NC(CC(=O)N)C(=O)NC(CCSC)C(=O)NC(CCCCN)C(=O)NC5C(SCC6C(=O)NC(C(=O)NC(CSC(C(C(=O)N6)NC(=O)C(NC5=O)C)C)C(=O)NC(CO)C(=O)NC(C(C)CC)C(=O)NC(CC7=CN=CN7)C(=O)NC(C(C)C)C(=O)NC(=C)C(=O)NC(CCCCN)C(=O)O)CC8=CN=CN8)C)C)C)CC(C)C [Nisin]
main component drawn
Details	fitness
[2], first compound 0.5 µg/mL, partner 0.4275 µg/mL	0.973
[2], first compound 0.5 µg/mL, partner 1.6 µg/mL	0.0053
[2], first compound 0.5 µg/mL, partner 1.71 µg/mL	0.0946
[2], first compound 0.5 µg/mL, partner 3.2 µg/mL	0.0291
[2], first compound 0.5 µg/mL, partner 6.4 µg/mL	0.0063
[2], first compound 1 µg/mL, partner 0.4275 µg/mL	0.982
[2], first compound 1 µg/mL, partner 1.6 µg/mL	0.16
[2], first compound 1 µg/mL, partner 1.71 µg/mL	0.0481
[2], first compound 1 µg/mL, partner 3.2 µg/mL	0.154
[2], first compound 1 µg/mL, partner 6.4 µg/mL	0.16
[2], first compound 2 µg/mL, partner 0.4275 µg/mL	0.929
[2], first compound 2 µg/mL, partner 0.855 µg/mL	0.617
[2], first compound 2 µg/mL, partner 1.6 µg/mL	0.0042
[2], first compound 2 µg/mL, partner 1.71 µg/mL	0.0736
[2], first compound 2 µg/mL, partner 3.2 µg/mL	0.0076
[2], first compound 2 µg/mL, partner 6.4 µg/mL	0.0001
[3], first compound 1.5 µg/mL, partner 0.5 µg/mL	0.814
[3], first compound 1.5 µg/mL, partner 1 µg/mL	0.775
[3], first compound 1.5 µg/mL, partner 2 µg/mL	0.541
[3], first compound 3 µg/mL, partner 0.5 µg/mL	0.797
[3], first compound 3 µg/mL, partner 1 µg/mL	0.769
[3], first compound 3 µg/mL, partner 2 µg/mL	0.595
[3], first compound 6 µg/mL, partner 0.5 µg/mL	0.738
[3], first compound 6 µg/mL, partner 1 µg/mL	0.703
[3], first compound 6 µg/mL, partner 2 µg/mL	0.485

fitness, [3], one replicate, main component drawn
Details	partner 1.25 µg/mL	partner 1.6 µg/mL	partner 2.5 µg/mL	partner 3.2 µg/mL	partner 4 µg/mL	partner 5 µg/mL	partner 6.4 µg/mL	partner 8 µg/mL	partner 16 µg/mL
first compound 1.5 µg/mL	0.802	0.697	0.537	0.0178	0.0192	0.0574	0.0673	0.0099	0.0067
first compound 3 µg/mL	0.765	0.733	0.48	0.0108	0.178	0.0615	0.0551	0.0036	0.0134
first compound 6 µg/mL	0.57	0.67	0.182	0.0221	0.117	0.0792	0.0542	0.0002	0
